Data reported in patent US20100330136A1, “USE OF CATIONIC SURFACTANTS FOR THE PROTECTION AGANST TOOTH EROSION” (priority 2008, published 2010).

How the values were obtained:
[1] = Tooth coating effect: surface energy from contact angles of sessile drops (Glantz method); assay type: physicochemical; settings: for Surface Energy: enamel without LAE ca 23 dyn/cm
Excerpt: The tooth coating effect by LAE was validated by the methods described by Glantz PO (1981. “Adhesion in the oral cavity” In Fundamentals and application of surface interactions in the oral cavity (ed. S. A. Leach), pp 49-64. Information Retrieval Ltd. London). The method measures contact angles of sessile drops from liquids with a range of polarities to determine the polar component of the surface energy (gamma p) and dispersive component on teeth coated with LAE. Without LAE the surface energy was 23 dyn/cm. […] In the presence of LAE the surface energy was reduced to a lowest level of 11.5 dyn/cm. This coating provides a shielding effect on teeth against erosion caused by acids from food and beverages.
The surface energy of enamel is ca 23 dyn/cm. This surface energy is reduced by the presence of LAE to the following values: […]

A. naeslundii = test: Antimicrobial activity on the biofilm (Zurich Biofilm Model); assay type: cell-based, Actinomyces naeslundii; settings: 0.5% LAE; 6 exposures of 1 minute in two days, evaluated 16 h after last exposure; control 8.3
Method: (§1) The biofilm model is a reliable tool to predict the in vivo efficacy of antimicrobials, and de- and remineralization of enamel exposed to biofilms in vitro. The experiments were performed with the Zurich Biofilm Model. Biofilms are formed either on hydroxyapatite (HA) or bovine enamel disks that have preconditioned in pooled, unstimulated saliva. Biofilms are formed in 24-well cell culture dishes incubated anaerobically at 37° C. The detailed description to the preparation of this model was published by Guggenheim et al., 2001, J. Dent. Res. 80 (1) 363-370. The microbial composition of this biofilm was constituted by five bacterial species and a yeast. More specifically, they are as follows: Streptococcus oralis, Streptococcus sobrinus, Actinomyces naeslundii, Veillonella dispar and Fusobacterium nucleatum and the yeast studied was Candida albicans. The bacteria chosen for incorporation into this biofilm model were five species encountered in supragingival plaque.
(§2) Most of the biofilm models are based on a continuous flow culture system which means that biofilms are subjected to shear or detachment forces. In contrast, the biofilm model used in these experiments was based on a batch culture system that was subjected only intermittently to such forces in the course of dip-washing or gentle swirling. […]
(§3) The results of the following table were expressed as log10 of CFU: […]

V. dispar = test: as above; assay type: cell-based, Veillonella dispar; settings: 0.5% LAE; 6 exposures of 1 minute in two days, evaluated 16 h after last exposure; control 8.1
Method: as §1, §2, §3

F. nucleatum = test: as above; assay type: cell-based, Fusobacterium nucleatum; settings: 0.5% LAE; 6 exposures of 1 minute in two days, evaluated 16 h after last exposure; control 5.1
Method: as §1, §2, §3

S. sobrinus = test: as above; assay type: cell-based, Streptococcus sobrinus; settings: 0.5% LAE; 6 exposures of 1 minute in two days, evaluated 16 h after last exposure; control 8.6
Method: as §1, §2, §3

S. oralis = test: as above; assay type: cell-based, Streptococcus oralis; settings: 0.5% LAE; 6 exposures of 1 minute in two days, evaluated 16 h after last exposure; control 9.0
Method: as §1, §2, §3

C. albicans = test: as above; assay type: cell-based, Candida albicans; settings: 0.5% LAE; 6 exposures of 1 minute in two days, evaluated 16 h after last exposure; control 5.1
Method: as §1, §2, §3

[2] = system: microorganisms in biofilm (five bacterial species and a yeast); test: Re-growth of biofilms after LAE exposure (Zurich Biofilm Model); assay type: cell-based; settings: 1% LAE
Method: as §1
Most of the biofilm models are based on a continuous flow culture system which means that biofilms are subjected to shear or detachment forces. In contrast, the biofilm model used in these experiments was based on a batch culture system that was subjected only intermittently to such forces in the course of dip-washing or gentle swirling. Thus, this biofilm model allows for controlled substance exposure times resembling those encountered during mouth rinsing.
The biofilms were exposed to LAE only 6 times during 1 minute in two subsequent days. The evaluation of the LAE effects was studied 16 h after the last exposure.
This experiment compared the re-growth of microorganisms in a control biofilm against a biofilm exposed to LAE. The content of microorganisms in each biofilm was studied along the time. For each point of analysis the growth of microorganisms was studied before and after a dip in a saline solution for control biofilms and in LAE for the other biofilms after each feeding.
The results are expressed as log10 of CFU: […]

[3] = Effect of LAE on acids generated from sugar rinses: pH on tooth plaque interfaces; assay type: in vivo, Humans; settings: for intraoral pH after 10% sucrose rinse: 0.16% LAE, humans
Excerpt: It has been established, that beverages and food containing sugars promote tooth erosion. The American Dental Association (ADA) food and nutrition programs recommend a procedure for evaluating pH in the mouth after ingestion of food and beverages. This is summarized in the FDA guidelines published in Federal Register 43433, vol 61, No. 165, 1996. The procedure involved measuring pH on tooth plaque interfaces after giving the subjects (6 subjects per group) 10% sucrose rinse in the presence or absence of treatment with 0.16% LAE versus placebo solution containing flavor, sweetener, plasticizer (components of chewing gum) to assess their acid neutralizing effects. […] Whereas rinsing with LAE maintains a pH of 5.4±0.3 which is above the danger zone maintained for 3 and 7 days of continuous monitoring. This validates that LAE not only coats the surface of teeth but maintains a healthy pH around teeth to prevent erosion.
Another effect produced by LAE is the pH neutralization. Upon hydrolysis LAE forms arginine which is a natural pH neutralizer in human saliva. The following table reports the intraoral pH with LAE versus a placebo from 0 to 7 days after 10% sucrose rinse: […]

[4] = system: Arthrobacter oxydans ATCC 8010; settings: Gram + bacteria; cited from earlier work
[5] = system: Bacillus cereus var mycoide ATCC 11778; settings: Gram + bacteria; cited from earlier work
[6] = system: Bacillus subtilis ATCC 6633; settings: Gram + bacteria; cited from earlier work
[7] = system: Clostridium perfringens ATCC 77454; settings: Gram + bacteria; cited from earlier work
[8] = system: Listeria monocytogenes ATCC 7644; settings: Gram + bacteria; cited from earlier work
[9] = system: Staphylococcus aureus ATCC 6538; settings: Gram + bacteria; cited from earlier work
[10] = system: Micrococcus luteus ATCC 9631; settings: Gram + bacteria; cited from earlier work
[11] = system: Lactobacillus delbrueckii ssp lactis CECT 372; settings: Gram + bacteria; cited from earlier work
[12] = system: Leuconostoc mesenteroides CETC 912; settings: Gram + bacteria; cited from earlier work
[13] = system: Streptococcus mutans ATCC 25175; settings: Gram + bacteria; cited from earlier work
[14] = system: Alcaligenes faecalis ATCC 8750; settings: Gram − bacteria; cited from earlier work
[15] = system: Bordetella bronchiseptica ATCC 4617; settings: Gram − bacteria; cited from earlier work
[16] = system: Citrobacter freundii ATCC 22636; settings: Gram − bacteria; cited from earlier work
[17] = system: Enterobacter aerogenes CECT 689; settings: Gram − bacteria; cited from earlier work
[18] = system: Escherichia coli ATCC 8739; settings: Gram − bacteria; cited from earlier work
Escherichia coli 0157H7 = settings: Gram − bacteria; cited from earlier work
[19] = system: Klebsiella pneumoniae var pneumoniae CECT 178; settings: Gram − bacteria; cited from earlier work
[20] = system: Proteus mirabilis CECT 170; settings: Gram − bacteria; cited from earlier work
[21] = system: Pseudomonas aeruginosa ATCC 9027; settings: Gram − bacteria; cited from earlier work
[22] = system: Salmonella typhimurium ATCC16028; settings: Gram − bacteria; cited from earlier work
[23] = system: Serratia marcenses CECT 274; settings: Gram − bacteria; cited from earlier work
[24] = system: Mycobacterium phlei ATCC 41423; settings: listed under Gram − bacteria; cited from earlier work
[25] = system: Aspergillus niger ATCC14604; settings: Fungi; cited from earlier work
[26] = system: Aureobasidium pullulans ATCC 9348; settings: Fungi; cited from earlier work
[27] = system: Gliocadium virens ATCC 4645; settings: Fungi; cited from earlier work
[28] = system: Chaetonium globosum ATCC 6205; settings: Fungi; cited from earlier work
[29] = system: Penicillium chrysogenum CECT 2802; settings: Fungi; cited from earlier work
[30] = system: Penicillium funiculosum CECT 2914; settings: Fungi; cited from earlier work
[31] = system: Candida albicans ATCC 10231; settings: Yeast; cited from earlier work
[32] = system: Rhodotorula rubra CECT 1158; settings: Yeast; cited from earlier work
[33] = system: Saccharomyces cerevisiae ATCC 9763; settings: Yeast; cited from earlier work
[34] = rats; cited from earlier work
[35] = cited from earlier work

For `CCCCCCCCCCCC(=O)N[C@@H](CCCN=C(N)N)C(=O)OCC.Cl` [LAE, ethyl ester of the lauramide of the arginine monohydrochloride], the “Surface Energy” value ([1]; [LAE] 0.00001 %) was 21.5 dyn/cm, the “Surface Energy” value ([1]; [LAE] 0.001 %) was 16.5 dyn/cm and the “Surface Energy” value ([1]; [LAE] 0.01 %) was 11.5 dyn/cm. For the same molecule, the “Surface Energy” value ([1]; [LAE] 0.1 %) was 14 dyn/cm, the “Surface Energy” value ([1]; [LAE] 1 %) was 12 dyn/cm and the “Surface energy, lowest level in the presence of LAE” value ([1]; lowest level, without LAE 23 dyn/cm) was 11.5 dyn/cm. For the same molecule, the “log10 of CFU in biofilm” value (A. naeslundii) was 2.5 log10 of CFU, the “log10 of CFU in biofilm” value (V. dispar) was 5.0 log10 of CFU and the “log10 of CFU in biofilm” value (F. nucleatum) was 2.1 log10 of CFU. The “log10 of CFU in biofilm” value (S. sobrinus) was 6.1 log10 of CFU, the “log10 of CFU in biofilm” value (S. oralis) was 6.1 log10 of CFU and the “log10 of CFU in biofilm” value (C. albicans) was 2.1 log10 of CFU. The “log10 of CFU, biofilm re-growth” value ([2]; 16.5 h, After 1 dip, control 7.2) was 3.5 log10 of CFU, the “log10 of CFU, biofilm re-growth” value ([2]; 16.5 h, Before 1 dip, control 7.1) was 7.1 log10 of CFU and the “log10 of CFU, biofilm re-growth” value ([2]; 24.5 h, After 3 dip, control 7.4) was 2.2 log10 of CFU. The “log10 of CFU, biofilm re-growth” value ([2]; 24.5 h, Before 3 dip, control 8.1) was 1.4 log10 of CFU, the “log10 of CFU, biofilm re-growth” value ([2]; 40.5 h, After 4 dip, control 8.1) was 1.2 log10 of CFU and the “log10 of CFU, biofilm re-growth” value ([2]; 40.5 h, Before 4 dip, control 8.1) was 5.9 log10 of CFU. For the same molecule, the “log10 of CFU, biofilm re-growth” value ([2]; 48.5 h, After 6 dip, control 8.4) was 1.2 log10 of CFU, the “log10 of CFU, biofilm re-growth” value ([2]; 48.5 h, Before 6 dip, control 8.5) was 3.2 log10 of CFU and the “log10 of CFU, biofilm re-growth” value ([2]; 64.5 h, Endpoint, control 9.0) was 4.3 log10 of CFU. For the same molecule, the “intraoral pH after 10% sucrose rinse” value ([3]; Day 0, placebo 6) was 6, the “intraoral pH after 10% sucrose rinse” value ([3]; Day 3, placebo 4.3) was 5.3 and the “intraoral pH after 10% sucrose rinse” value ([3]; Day 7, placebo 4.3) was 5.2. For the same molecule, the “pH of the tooth interface after 10% sucrose rinse” value ([3]; maintained for 3 and 7 days of continuous monitoring, 0.16% LAE rinse, placebo 4.3±0.2, danger zone below pH 5) was 5.4±0.3, the M.I.C. [4] was 64 ppm and the M.I.C. [5] was 32 ppm. The M.I.C. [6] was 16 ppm, the M.I.C. [7] was 16 ppm and the M.I.C. [8] was 10 ppm. For the same molecule, the M.I.C. [9] was 32 ppm, the M.I.C. [10] was 128 ppm and the M.I.C. [11] was 16 ppm. The M.I.C. [12] was 32 ppm, the M.I.C. [13] was 64 ppm and the M.I.C. [14] was 64 ppm. For the same molecule, the M.I.C. [15] was 128 ppm, the M.I.C. [16] was 64 ppm and the M.I.C. [17] was 32 ppm. The M.I.C. [18] was 32 ppm, the M.I.C. (Escherichia coli 0157H7) was 20 ppm and the M.I.C. [19] was 32 ppm. For the same molecule, the M.I.C. [20] was 32 ppm, the M.I.C. [21] was 64 ppm and the M.I.C. [22] was 32 ppm. The M.I.C. [23] was 32 ppm, the M.I.C. [24] was 2 ppm and the M.I.C. [25] was 32 ppm. For the same molecule, the M.I.C. [26] was 16 ppm, the M.I.C. [27] was 32 ppm and the M.I.C. [28] was 16 ppm. The M.I.C. [29] was 128 ppm, the M.I.C. [30] was 16 ppm and the M.I.C. [31] was 16 ppm. For the same molecule, the M.I.C. [32] was 16 ppm, the M.I.C. [33] was 32 ppm and the absorption and metabolism [34] was “fast absorption and metabolisation into naturally-occurring amino acids and the fatty acid lauric acid”. The “tolerance and toxicity in practical use” value ([35]; human beings) was “well tolerated and to display a very low toxicity to human beings” and the toxicity ([35]; toxicological studies, animals and humans) was “completely harmless to animals and humans”.
